# Assay results from ChEMBL document CHEMBL2202979, “Development of macrocyclic inhibitors of HCV NS3/4A protease with cyclic constrained P2-P4 linkers” (Bioorg Med Chem Lett, 2012).
# What was measured:
# [1] = Inhibition of HCV subtype 3a NS3/4A protease incubated for 30 mins by time-resolved fluorescence assay; set-up: species or system Hepatitis C virus subtype 3a
# [2] = target: Genome polyprotein (Hepacivirus C, UniProt K7XJL6, A156T); assay: Inhibition of HCV genotype 1b BK NS3/4A protease A156T mutant expressed in Escherichia coli incubated for 30 mins by time-resolved fluorescence assay; set-up: species or system Hepatitis C virus (isolate BK)
# [3] = target: Hepatitis C virus serine protease, NS3/NS4A (Hepatitis C virus, UniProt A3EZI9+D2K2A8, R155K); assay: Inhibition of HCV genotype 1b BK NS3/4A protease R155K mutant expressed in Escherichia coli incubated for 30 mins by time-resolved fluorescence assay; set-up: species or system Hepatitis C virus (isolate BK)
# [4] = target: Genome polyprotein (Hepacivirus C, UniProt K7XJL6, A156V); assay: Inhibition of HCV genotype 1b BK NS3/4A protease A156V mutant expressed in Escherichia coli incubated for 30 mins by time-resolved fluorescence assay; set-up: species or system Hepatitis C virus (isolate BK)
# [5] = Inhibition of HCV genotype 1b BK NS3/4A protease expressed in Escherichia coli incubated for 30 mins by time-resolved fluorescence assay; set-up: species or system Hepatitis C virus (isolate BK)
# [6] = test system: Hepatitis C virus; assay: Antiviral activity against HCV genotype 1b Con1 infected in human Huh7 cells assessed as inhibition of viral replication in presence of 50% NHS by HCV bicistronic replicon assay; assay type: functional, organism-based, Hepacivirus hominis; conditions: Con1, Huh-7
# [7] = Inhibition of HCV genotype 2a JFH NS3/4A protease expressed in Escherichia coli incubated for 30 mins by time-resolved fluorescence assay; set-up: species or system Hepatitis C virus JFH-1
# [8] = target: Genome polyprotein (Hepacivirus C, UniProt K7XJL6, D168V); assay: Inhibition of HCV genotype 1b BK NS3/4A protease D168V mutant expressed in Escherichia coli incubated for 30 mins by time-resolved fluorescence assay; set-up: species or system Hepatitis C virus (isolate BK)
# [9] = Drug level in Sprague-Dawley rat liver at 5 mg/kg, po measured 4 hrs post dose by LC/MS method; assay type: ADME, organism-based; set-up: dose 5 mg/kg, route oral; conditions: read-out: Drug uptake
# [10] = test system: Hepatitis C virus; assay: Antiviral activity against HCV genotype 1b Con1 infected in human Huh7 cells assessed as inhibition of viral replication in presence of 10% FBS by HCV bicistronic replicon assay; assay type: functional, organism-based, Hepacivirus hominis; conditions: Con1, Huh-7
structure (smiles),measurement,setting,value
C=C[C@@H]1C[C@]1(NC(=O)[C@@H]1C[C@@H]2CN1C(=O)[C@H](C1CCCC1)NC(=O)O[C@@H]1COC[C@H]1CCC/C=C/c1cc3ccc(OC)cc3nc1O2)C(=O)NS(=O)(=O)C1CC1,Ki,[1],5.7 nM
same,Ki,[2],7.8 nM
same,Ki,[3],0.1 nM
same,Ki,[4],64 nM
same,Ki,[5],< 0.05 nM
same,IC50,[6],5 nM
C=C[C@@H]1C[C@]1(NC(=O)[C@@H]1C[C@@H]2CN1C(=O)[C@H](C1CCCC1)NC(=O)OCC(C)(C)CCCc1cc3c(cc(OCC)nc3cc1OC)O2)C(=O)NS(=O)(=O)C1CC1,Ki,[7],0.14 nM
same,Ki,[1],2.1 nM
same,Ki,[3],1.2 nM
same,Ki,[8],2.2 nM
same,Ki,[5],0.016 nM
C=C[C@@H]1C[C@]1(NC(=O)[C@@H]1C[C@@H]2CN1C(=O)[C@H](C1CCCC1)NC(=O)O[C@@H]1CCC[C@H]1C/C=C/c1cc3c(cc(OCC)nc3cc1OC)O2)C(=O)NS(=O)(=O)C1CC1,Ki,[1],4.6 nM
same,Ki,[2],0.8 nM
same,Ki,[3],0.5 nM
same,Ki,[4],15 nM
same,Ki,[5],< 0.05 nM
same,IC50,[6],17 nM
same,concentration at 4 h,[9],10.2 µM
C=C[C@@H]1C[C@]1(NC(=O)[C@@H]1C[C@@H]2CN1C(=O)[C@H](C1CCCCC1)NC(=O)O[C@@H]1CCC[C@H]1C/C=C/c1cc3c(cc(OCC)nc3cc1OC)O2)C(=O)NS(=O)(=O)C1CC1,Ki,[1],3.1 nM
same,Ki,[2],2 nM
same,Ki,[3],1.3 nM
same,Ki,[4],40 nM
same,Ki,[5],< 0.05 nM
same,IC50,[6],55 nM
same,concentration at 4 h,[9],37.1 µM
C=C[C@@H]1C[C@]1(NC(=O)[C@@H]1C[C@@H]2CN1C(=O)[C@H](C1CCCCC1)NC(=O)O[C@@H]1CCCC[C@H]1C/C=C/c1cc3c(cc(OCC)nc3cc1OC)O2)C(=O)NS(=O)(=O)C1CC1,Ki,[1],12.6 nM
same,Ki,[2],42 nM
same,Ki,[3],1.5 nM
same,Ki,[4],567 nM
same,Ki,[5],< 0.05 nM
same,IC50,[6],25 nM
C=C[C@@H]1C[C@]1(NC(=O)[C@@H]1C[C@@H]2CN1C(=O)[C@H](C1CCCC1)NC(=O)O[C@@H]1CCC[C@@]1(C)C/C=C/c1cc3c(cc(OCC)nc3cc1OC)O2)C(=O)NS(=O)(=O)C1CC1,Ki,[1],4.1 nM
same,Ki,[2],49 nM
same,Ki,[3],0.9 nM
same,Ki,[5],< 0.05 nM
same,IC50,[6],38 nM
C=C[C@@H]1C[C@]1(NC(=O)[C@@H]1C[C@@H]2CN1C(=O)[C@H](C1CCCCC1)NC(=O)O[C@@H]1COC[C@H]1C/C=C/c1cc3c(cc(OCC)nc3cc1OC)O2)C(=O)NS(=O)(=O)C1CC1,Ki,[1],1.9 nM
same,Ki,[2],0.7 nM
same,Ki,[3],0.5 nM
same,Ki,[4],23 nM
same,Ki,[5],< 0.05 nM
same,IC50,[6],18 nM
same,concentration at 4 h,[9],0.3 µM
C=C[C@@H]1C[C@]1(NC(=O)[C@@H]1C[C@@H]2CN1C(=O)[C@H](C1CCCC1)NC(=O)O[C@H]1C[C@H](C/C=C/c3cc4c(cc(OCC)nc4cc3OC)O2)C1)C(=O)NS(=O)(=O)C1CC1,Ki,[1],7.7 nM
same,Ki,[2],4.8 nM
same,Ki,[3],2.4 nM
same,Ki,[4],16 nM
same,Ki,[5],< 0.05 nM
same,IC50,[6],16 nM
C=C[C@@H]1C[C@]1(NC(=O)[C@@H]1C[C@@H]2CN1C(=O)[C@H](C1CCCC1)NC(=O)OCC(C)(C)C[C@@H]1C[C@@H]1c1cc3c(cc(OCC)nc3cc1OC)O2)C(=O)NS(=O)(=O)C1CC1,Ki,[7],0.14 nM
same,Ki,[1],1 nM
same,Ki,[2],2.8 nM
same,Ki,[3],0.2 nM
same,Ki,[8],1.8 nM
same,Ki,[4],14 nM
same,Ki,[5],0.016 nM
same,IC50,[6],11 nM
same,concentration at 4 h,[9],27 µM
same,IC50,[10],2.3 nM
C=C[C@@H]1C[C@]1(NC(=O)[C@@H]1C[C@@H]2CN1C(=O)[C@H](C1CCCC1)NC(=O)N(C)[C@@H]1CCC[C@H]1C/C=C/c1cc3c(cc(OCC)nc3cc1OC)O2)C(=O)NS(=O)(=O)C1CC1,Ki,[1],1.5 nM
same,Ki,[2],1.7 nM
same,Ki,[3],0.6 nM
same,Ki,[4],18 nM
same,Ki,[5],< 0.05 nM
same,IC50,[6],25 nM
same,concentration at 4 h,[9],15.9 µM
C=C[C@@H]1C[C@]1(NC(=O)[C@@H]1C[C@@H]2CN1C(=O)[C@H](C1CCCCC1)NC(=O)N1CC[C@@H](C1)OC/C=C/c1cc3c(cc(OCC)nc3cc1OC)O2)C(=O)NS(=O)(=O)C1CC1,Ki,[1],1.4 nM
same,Ki,[2],0.4 nM
same,Ki,[3],0.2 nM
same,Ki,[4],6.8 nM
same,Ki,[5],< 0.05 nM
same,IC50,[6],43 nM
same,concentration at 4 h,[9],4.8 µM
C=C[C@@H]1C[C@]1(NC(=O)[C@@H]1C[C@@H]2CN1C(=O)[C@H](C1CCCCC1)NC(=O)N1CC[C@H](C1)OC/C=C/c1cc3c(cc(OCC)nc3cc1OC)O2)C(=O)NS(=O)(=O)C1CC1,Ki,[1],3.6 nM
same,Ki,[2],2.4 nM
same,Ki,[3],0.3 nM
same,Ki,[4],134 nM
same,Ki,[5],< 0.05 nM
same,IC50,[6],29 nM
C=C[C@@H]1C[C@]1(NC(=O)[C@@H]1C[C@@H]2CN1C(=O)[C@H](C1CCCCC1)NC(=O)N1CCC[C@@H](C1)OCCCc1cc3c(cc(OCC)nc3cc1OC)O2)C(=O)NS(=O)(=O)C1CC1,Ki,[1],2.3 nM
same,Ki,[2],1.9 nM
same,Ki,[3],1.2 nM
same,Ki,[4],46 nM
same,Ki,[5],< 0.05 nM
same,IC50,[6],23 nM
same,concentration at 4 h,[9],4.4 µM
C=C[C@@H]1C[C@]1(NC(=O)[C@@H]1C[C@@H]2CN1C(=O)[C@H](C1CCCCC1)NC(=O)N1CCO[C@H](CCCCc3cc4c(cc(OCC)nc4cc3OC)O2)C1)C(=O)NS(=O)(=O)C1CC1,Ki,[1],5.2 nM
same,Ki,[2],6.9 nM
same,Ki,[3],1 nM
same,Ki,[5],< 0.05 nM
same,IC50,[6],9 nM
C=C[C@@H]1C[C@]1(NC(=O)[C@@H]1C[C@@H]2CN1C(=O)[C@H](C1CCCCC1)NC(=O)N1CCC(CC1)OCCC/C=C/c1cc3c(cc(OCC)nc3cc1OC)O2)C(=O)NS(=O)(=O)C1CC1,Ki,[1],2.1 nM
same,Ki,[2],0.7 nM
same,Ki,[3],0.2 nM
same,Ki,[4],18 nM
same,Ki,[5],< 0.05 nM
same,IC50,[6],32 nM
same,concentration at 4 h,[9],11 µM
C=C[C@@H]1C[C@]1(NC(=O)[C@@H]1C[C@@H]2CN1C(=O)[C@H](C1CCCCC1)NC(=O)N1CC(C1)OCCC/C=C/c1cc3c(cc(OCC)nc3cc1OC)O2)C(=O)NS(=O)(=O)C1CC1,Ki,[1],0.9 nM
same,Ki,[2],0.2 nM
same,Ki,[3],0.2 nM
same,Ki,[4],6.1 nM
same,Ki,[5],< 0.05 nM
same,IC50,[6],64 nM
same,concentration at 4 h,[9],4 µM
C=C[C@@H]1C[C@]1(NC(=O)[C@@H]1C[C@@H]2CN1C(=O)[C@H](C1CCCC1)NC(=O)N1CC(OCC)(CCCCc3cc4c(cc(OCC)nc4cc3OC)O2)C1)C(=O)NS(=O)(=O)C1CC1,Ki,[1],1 nM
same,Ki,[2],7.1 nM
same,Ki,[3],0.9 nM
same,Ki,[5],< 0.05 nM
same,IC50,[6],18 nM
C=C[C@@H]1C[C@]1(NC(=O)[C@@H]1C[C@@H]2CN1C(=O)[C@H](C1CCCC1)NC(=O)O[C@@H]1CCC[C@H]1CCC/C=C/c1cc3ccc(OC)cc3nc1O2)C(=O)NS(=O)(=O)C1CC1,Ki,[1],11.6 nM
same,Ki,[2],17 nM
same,Ki,[3],0.2 nM
same,Ki,[5],< 0.05 nM
same,IC50,[6],58 nM
same,concentration at 4 h,[9],30.8 µM
C=C[C@@H]1C[C@]1(NC(=O)[C@@H]1C[C@@H]2CN1C(=O)[C@H](C1CCCC1)NC(=O)N1CC[C@@H](C1)OCCC/C=C/c1cc3ccc(OC)cc3nc1O2)C(=O)NS(=O)(=O)C1CC1,Ki,[7],0.17 nM
same,Ki,[1],3 nM
same,Ki,[2],2.9 nM
same,Ki,[3],0.1 nM
same,Ki,[8],1.2 nM
same,Ki,[4],37 nM
same,Ki,[5],0.016 nM
same,IC50,[6],32 nM
same,concentration at 4 h,[9],8.6 µM
same,IC50,[10],3.1 nM
C=C[C@@H]1C[C@]1(NC(=O)[C@@H]1C[C@@H]2CN1C(=O)[C@H](C1CCCC1)NC(=O)N1CC[C@@H](C1)OCCCCCc1cc3ccc(OC)cc3nc1O2)C(=O)NS(=O)(=O)C1CC1,Ki,[1],5.9 nM
same,Ki,[2],1.5 nM
same,Ki,[3],0.1 nM
same,Ki,[4],22 nM
same,Ki,[5],< 0.05 nM
same,IC50,[6],31 nM
same,concentration at 4 h,[9],12 µM
C=C[C@@H]1C[C@]1(NC(=O)[C@@H]1C[C@@H]2CN1C(=O)[C@H](C1CCCCC1)NC(=O)N1CCC(CC1)OCCC/C=C/c1cc3ccc(OC)cc3nc1O2)C(=O)NS(=O)(=O)C1CC1,Ki,[1],27 nM
same,Ki,[2],11 nM
same,Ki,[3],0.3 nM
same,Ki,[5],< 0.05 nM
C=C[C@@H]1C[C@]1(NC(=O)[C@@H]1C[C@@H]2CN1C(=O)[C@H](C1CCCC1)NC(=O)N1CC(C1)OCCC/C=C/c1cc3ccc(OC)cc3nc1O2)C(=O)NS(=O)(=O)C1CC1,Ki,[1],38 nM
same,Ki,[2],28 nM
same,Ki,[3],0.5 nM
same,Ki,[5],< 0.05 nM
C=C[C@@H]1C[C@]1(NC(=O)[C@@H]1C[C@@H]2CN1C(=O)[C@H](C1CCCC1)NC(=O)O[C@@H]1CCC(CCCc3cc4c(cc(OCC)nc4cc3OC)O2)C1)C(=O)NS(=O)(=O)C1CC1 (mixture of isomers),Ki,[1],5 nM
same,Ki,[2],4.6 nM
same,Ki,[3],2 nM
same,Ki,[4],46 nM
same,Ki,[5],< 0.05 nM
same,IC50,[6],24 nM
C=C[C@@H]1C[C@]1(NC(=O)[C@@H]1C[C@@H]2CN1C(=O)[C@H](C1CCCC1)NC(=O)OC1CCC1C/C=C/c1cc3c(cc(OCC)nc3cc1OC)O2)C(=O)NS(=O)(=O)C1CC1 (mixture of isomers),Ki,[1],18 nM
same,Ki,[2],52 nM
same,Ki,[3],2.2 nM
same,Ki,[5],< 0.05 nM
